In US9458102B2 (priority 2011, dated 2016):
Where two headings read alike, the source gives them in different places.

Assays:
[1] = system: heteromeric rod CNG channels consisting of CNGA1 and CNGB1 subunits; assay: CNG channel block at subsaturating cGMP (state dependence of block); format: cell-based; settings: subsaturating cGMP (50 or 100 μM), +50 mV, normalized to KD at 2 mM cGMP
Source text: KD values at saturating cGMP were corrected for ion accumulation. Solid lines indicate simulations for exclusive closed channel blockers, using KD/KDsat=(1−Fsat)/(1−FsatI/Imax), where Fsat is the estimated fraction of open heteromeric rod channels in saturating cGMP assuming Fsat=0.3 (a), 0.56 (b), or 0.78 (c). The dotted line is a simulation for a blocker with no preference for state, or KD/KDsat=1. The dashed line is a simulation for an exclusive open channel blocker, using KD/KDsat=(I/Imax)^−1.
The solid lines in FIG. 4 marked a, b, and c represent the expected relationship between KD and the fraction of closed channels for an exclusive closed channel blocker. Each of a, b, and c uses one estimate for the probability of closed heteromeric retinal rod channels at saturating cGMP. The simulations are described in the following references: Matthews G et al, J Physiol 403, 389-405 (1988); Taylor W R & Baylor D A, J Physiol 483 567-582 (1995); and Bucossi G et al, Biophys J 72, 1165-1181 (1997), all of which are incorporated by reference herein. The dotted line represents a simulation of a blocker with no preference as to conformational of the channel. The dashed line represents a simulation for an exclusive open channel blocker.
(§1) Recordings from inside-out excised patches were made 3-7 days after oocyte injection on an Axopatch 1D® amplifier (Axon Instruments, Foster City, Calif.). Briefly, oocyte vitelline membranes were removed in solution containing 200 mM K aspartate, 20 mM KCl, 1 mM MgCl2, 10 mM EGTA, 10 mM HEPES, pH 7.4. Oocytes were placed in a recording chamber in a solution containing 130 mM NaCl, 2 mM HEPES, 0.02 mM EDTA, 1 mM EGTA, pH 7.6, and borosilicate glass electrodes (1-3 MΩ) were filled with identical solution. Macroscopic currents were filtered at 1 kHz and sampled at 2 kHz using pCLAMP 8.0® software (Axon Instruments). Channels were either fully activated with 2 mM or partially activated with 50 and 100 μM cGMP. […] Glass syringes and Teflon tubing were used to minimize the binding of compounds to surfaces; concentrations passing through the perfusion system were verified by absorbance. Current traces were digitally filtered at 300 Hz (Gaussian) and averaged using Clampfit 8.2® software. Currents in the absence of cGMP were subtracted from all currents analyzed. KD values were determined and expressed as the mean±SD.

[2] = target: T1, Butyrylcholinesterase purified from human blood serum (Homo sapiens, UniProt P06276); assay: In vitro hydrolysis by serum cholinesterase (butyrylcholinesterase); format: in vitro ADME; settings: 50 μM compound, 0.1M phosphate buffer pH 7.4, 37° C.; mean±SD of triplicate
T1 construct: Butyrylcholinesterase purified from human blood serum; purchased Sigma; host or cells: purified from human blood serum
T1 sequence (P06276 29-602): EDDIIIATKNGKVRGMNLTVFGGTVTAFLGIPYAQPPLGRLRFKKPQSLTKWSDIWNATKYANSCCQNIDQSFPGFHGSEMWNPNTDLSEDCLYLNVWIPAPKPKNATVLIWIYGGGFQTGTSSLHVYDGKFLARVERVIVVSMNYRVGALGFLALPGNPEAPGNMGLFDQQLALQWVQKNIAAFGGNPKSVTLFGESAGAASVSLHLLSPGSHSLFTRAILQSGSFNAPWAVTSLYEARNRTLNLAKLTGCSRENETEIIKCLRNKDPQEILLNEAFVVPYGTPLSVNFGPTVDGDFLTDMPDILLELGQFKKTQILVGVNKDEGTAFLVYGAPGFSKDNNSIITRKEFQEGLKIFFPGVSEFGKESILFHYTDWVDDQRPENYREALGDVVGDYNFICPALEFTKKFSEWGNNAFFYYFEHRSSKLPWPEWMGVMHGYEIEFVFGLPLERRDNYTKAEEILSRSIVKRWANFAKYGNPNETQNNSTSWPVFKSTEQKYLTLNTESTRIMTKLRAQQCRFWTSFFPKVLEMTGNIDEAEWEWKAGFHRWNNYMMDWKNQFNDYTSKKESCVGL
Procedure: Compound 1 is rapidly hydrolyzed by butyrylcholinesterase in the bloodstream. Butyrylcholinesterase purified from human blood serum was used to test the resistance of the disclosed compounds to hydrolysis.
(§2) All enzymatic assays were performed with 50 μM compound in 0.1M phosphate buffer, pH 7.4, at 37° C. with stirring, unless otherwise noted. Butyrylcholinesterase stock solutions from human serum (Sigma, St. Louis, Mo.) were prepared at 100 U/mL in 0.1 M phosphate buffer, pH 7.4, and stored at −20° C. until use. Hydrolysis was monitored on an 8452A diode array spectrophotometer (Hewlett-Packard). Product peak wavelength absorption was immediately monitored upon addition of compound. Absorbances for complete hydrolysis were determined when there were no further detectable changes. […] All hydrolysis assays were performed in triplicate, and final rate constants are expressed as the mean±SD of the three individually determined rate constants. In some experiments with compound 1, samples were taken at the beginning and end of the assay to verify the hydrolysis product and the completion of the reaction by HPLC. These samples were compared to compounds 1 and 3 on a C18 column eluted with 0.1% TFA in water/acetonitrile. Activity of chymotrypsin (bovine, Worthington Biochemical Co., 190 μg/mL) was verified with 90 μM 4-nitrophenyl acetate in 0.1 M HEPES solution, pH 6.5, at 37° C. with stirring. Hydrolysis product was monitored at 404 nm for 10 min. Activity of proteinase K (from Engyodontium album, Sigma, 165 μg/mL) was verified with 16.5 mg/mL bovine serum albumin in 0.1 M phosphate buffer, pH 7.4, at 37° C. Samples were taken at time point increments up to 2 hours when the reaction reached completion. Samples were analyzed with 12% SDS-PAGE, stained with 0.1% Coomassie Blue.

[3] = target: heteromeric rod CNG channels consisting of CNGA1 and CNGB1 subunits (Bos taurus, UniProt Q00194+Q28181); assay: biochemical; format: cell-based; settings: 2 mM cGMP; for Kd: Table 1, mean±SD, not corrected for ion accumulation
heteromeric rod CNG channels consisting of CNGA1 and CNGB1 subunits (Bos taurus, UniProt Q00194+Q28181), sequence (Q00194 whole entry): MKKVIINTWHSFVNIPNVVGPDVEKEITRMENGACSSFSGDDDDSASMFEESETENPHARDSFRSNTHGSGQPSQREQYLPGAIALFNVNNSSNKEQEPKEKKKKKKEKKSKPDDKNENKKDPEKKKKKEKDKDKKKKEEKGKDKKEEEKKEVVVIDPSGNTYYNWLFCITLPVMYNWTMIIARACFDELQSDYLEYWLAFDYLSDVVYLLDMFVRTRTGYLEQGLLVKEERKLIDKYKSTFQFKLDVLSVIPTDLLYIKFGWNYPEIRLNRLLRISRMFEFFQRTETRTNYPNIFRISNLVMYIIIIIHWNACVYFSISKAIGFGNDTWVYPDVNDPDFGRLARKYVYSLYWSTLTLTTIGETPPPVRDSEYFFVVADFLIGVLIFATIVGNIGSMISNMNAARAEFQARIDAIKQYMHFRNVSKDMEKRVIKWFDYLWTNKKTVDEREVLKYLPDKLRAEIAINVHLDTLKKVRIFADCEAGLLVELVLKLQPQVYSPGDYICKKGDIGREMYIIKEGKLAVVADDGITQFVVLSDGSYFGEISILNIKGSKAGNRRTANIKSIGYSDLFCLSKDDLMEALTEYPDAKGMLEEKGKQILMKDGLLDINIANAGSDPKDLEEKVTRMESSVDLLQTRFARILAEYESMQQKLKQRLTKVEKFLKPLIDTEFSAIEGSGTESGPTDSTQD
heteromeric rod CNG channels consisting of CNGA1 and CNGB1 subunits (Bos taurus, UniProt Q00194+Q28181), sequence (Q28181 whole entry): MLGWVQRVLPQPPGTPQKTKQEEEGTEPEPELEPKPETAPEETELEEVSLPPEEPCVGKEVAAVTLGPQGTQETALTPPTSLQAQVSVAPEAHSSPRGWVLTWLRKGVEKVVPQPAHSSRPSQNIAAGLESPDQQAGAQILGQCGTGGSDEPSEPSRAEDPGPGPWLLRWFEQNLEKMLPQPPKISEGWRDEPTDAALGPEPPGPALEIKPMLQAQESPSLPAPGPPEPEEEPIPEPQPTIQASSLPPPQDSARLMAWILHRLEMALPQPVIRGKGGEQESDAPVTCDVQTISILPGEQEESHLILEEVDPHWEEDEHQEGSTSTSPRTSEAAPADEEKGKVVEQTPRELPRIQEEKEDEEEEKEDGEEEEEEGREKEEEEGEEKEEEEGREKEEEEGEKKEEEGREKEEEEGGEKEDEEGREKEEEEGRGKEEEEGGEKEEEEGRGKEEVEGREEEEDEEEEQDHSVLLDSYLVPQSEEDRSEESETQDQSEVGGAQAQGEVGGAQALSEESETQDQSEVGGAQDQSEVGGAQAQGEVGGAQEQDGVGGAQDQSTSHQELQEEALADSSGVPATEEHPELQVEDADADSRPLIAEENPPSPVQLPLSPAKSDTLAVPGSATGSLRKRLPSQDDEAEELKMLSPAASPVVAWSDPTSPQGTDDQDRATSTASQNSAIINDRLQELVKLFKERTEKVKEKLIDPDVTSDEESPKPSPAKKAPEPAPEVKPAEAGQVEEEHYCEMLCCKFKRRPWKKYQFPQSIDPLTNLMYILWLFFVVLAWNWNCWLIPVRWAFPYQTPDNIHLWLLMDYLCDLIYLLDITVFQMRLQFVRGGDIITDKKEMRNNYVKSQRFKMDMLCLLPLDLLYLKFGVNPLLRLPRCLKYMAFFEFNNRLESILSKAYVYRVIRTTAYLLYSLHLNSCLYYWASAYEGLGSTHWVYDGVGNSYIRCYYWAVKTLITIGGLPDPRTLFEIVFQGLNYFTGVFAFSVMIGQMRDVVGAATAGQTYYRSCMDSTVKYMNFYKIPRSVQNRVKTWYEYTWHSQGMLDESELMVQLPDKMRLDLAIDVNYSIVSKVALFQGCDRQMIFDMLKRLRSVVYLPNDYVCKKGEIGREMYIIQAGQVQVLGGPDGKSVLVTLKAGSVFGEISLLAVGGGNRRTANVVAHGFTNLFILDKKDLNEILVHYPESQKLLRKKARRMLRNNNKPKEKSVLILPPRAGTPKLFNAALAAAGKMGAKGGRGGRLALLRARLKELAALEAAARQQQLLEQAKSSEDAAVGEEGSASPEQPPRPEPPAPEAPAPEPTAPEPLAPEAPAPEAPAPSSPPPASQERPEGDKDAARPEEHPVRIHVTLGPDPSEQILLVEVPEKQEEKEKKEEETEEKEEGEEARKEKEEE
Procedure: Currents were elicited by a voltage step protocol from 0 to −50 to +50 mV (See FIG. 1) in the presence of 2 mM cGMP or 2 mM cGMP and compound (5 μM). Time scale is shown in the lower left-hand corner of the panel and FIG. 1, and the zero current level is indicated by the dotted line.
The solid line indicates the fit of the equation for block at a single binding site.
Time scale is shown in the lower left-hand corner of the panel and FIG. 1, and the zero current level is indicated by the dotted line. […] Solid line indicates the fit of the equation for block at a single binding site.
The effectiveness of retinal rod CNG channel current block by the disclosed compounds was tested in Xenopus oocyte preparations. Excised, inside-out patches pulled from oocytes expressed heteromeric rod CNG channels consisting of CNGA1 and CNGB1 subunits. […] CNG channel currents were elicited by a voltage step protocol to −50 and +50 mV (FIG. 1). The apparent KD value at each membrane potential was estimated first by determining I+B and I−B at steady state, where I+B is the current in the presence of blocker and I−B is current in the absence of blocker, for different blocker concentrations ([B]).
Ovaries were surgically removed from adult Xenopus laevis females (Xenopus Express; Brooksville, Fla.) anesthetized with ice-cold 0.1% tricaine and 0.1% NaHCO3 solution. Oocytes were chemically released from ovarian follicles in Ca^2+-free Barth's solution (88 mM NaCl, 1 mM KCl, 2.4 mM NaHCO3, 0.82 mM MgSO4, 7.5 mM Tris, 2.5 mM sodium pyruvate, 100 U/mL penicillin, and 100 μg/mL streptomycin, pH 7.4) containing 0.1 U/mL Liberase Blendzymes (Roche, Indianapolis, Ind.). Stages IV and V oocytes were visually sorted and stored in ND-96 (96 mM NaCl, 2 mM KCl, 1.8 mM CaCl2, 1 mM MgCl2, 5 mM HEPES, 2.5 mM sodium pyruvate, 100 U/mL penicillin, and 100 μg/mL streptomycin, pH 7.4) at 16° C. Oocytes were co-injected the following day with 33 ng of CNGA1 and 67 ng of CNGB1 cRNA […] synthesized from linearized pGEM-HE expression vectors containing the channel subunit cDNA sequence (Strassmaier T & Karpen J, J Med Chem 50, 4186-4194, (2007), incorporated by reference herein) using T7 mMESSAGE mMACHINE® (Ambion, Austin, Tex.). Injected oocytes were incubated at 18° C. the first day and 16° C. for the remaining days.
as §1, with “absorbance.” for “absorbance. Current traces were digitally filtered at 300 Hz (Gaussian) and averaged using Clampfit 8.2® software. Currents in the absence of cGMP were subtracted from all currents analyzed. KD values were determined and expressed as the mean±SD.”

chymotrypsin = target: T2, chymotrypsin (Bos taurus, UniProt P00766); assay: In vitro hydrolysis by chymotrypsin; format: in vitro ADME
T2 construct: purchased Worthington Biochemical Co
Procedure: as §2, with “In some experiments with compound 1, samples were taken at the beginning and end of the assay to verify the hydrolysis product and the completion of the reaction by HPLC. These samples were compared to compounds 1 and 3 on a C18 column eluted with 0.1% TFA in water/acetonitrile.” left out

proteinase K = target: T3, proteinase K (Parengyodontium album, UniProt P06873); assay: In vitro hydrolysis by proteinase K; format: in vitro ADME, Engyodontium album
T3 construct: purchased Sigma
T3 sequence (P06873 106-384): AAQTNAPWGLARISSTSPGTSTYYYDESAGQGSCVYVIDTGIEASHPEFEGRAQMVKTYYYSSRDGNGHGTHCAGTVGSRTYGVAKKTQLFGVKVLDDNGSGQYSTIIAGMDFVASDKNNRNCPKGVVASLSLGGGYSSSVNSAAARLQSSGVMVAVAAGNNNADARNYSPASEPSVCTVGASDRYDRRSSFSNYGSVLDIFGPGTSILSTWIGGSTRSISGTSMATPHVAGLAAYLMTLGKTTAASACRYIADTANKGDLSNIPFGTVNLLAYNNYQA
Procedure: Hydrolysis products of 4-nitrophenyl acetate and BSA were detected as positive controls.
as §2

SMILES	state dependence of block (KD vs fraction of closed channels) [1]	Hydrolysis rate [2] [nmol/min/mg]	Kd ([3]; +50 mV, read-out: KD(+50)) [µM]	Kd ([3]; −50 mV, read-out: KD(−50)) [µM]	hydrolysis products with chymotrypsin (chymotrypsin)	hydrolysis products with proteinase K (proteinase K)	voltage dependence of block ([3]; +50 vs −50 mV)
CCCCNc1ccc(C(=O)OCCN(C)C)cc1 [Compound 1, 2-(dimethylamino)ethyl 4-(butylamino)benzoate, reference compound]	better fit the results expected of a closed channel blocker	132 ± 10					
CCCCNc1ccc(C(=O)NCCN(C)C)cc1 [Compound 6, 4-(Butylamino)-N-(2-(dimethylamino)ethyl)benzamide]		8.4 ± 3.5	4.4 ± 2	28.6 ± 13.1	not able to generate any detectable hydrolysis products	not able to generate any detectable hydrolysis products	
CCCCCCCCNc1ccc(C(=O)NCCN(C)C)cc1 [Compound 7, 4-(Octylamino)-N-(2-(dimethylamino)ethyl)benzamide]		1.2 ± 0.5			not able to generate any detectable hydrolysis products	not able to generate any detectable hydrolysis products	appreciably less voltage dependent than compound 1, 6, and 8
